US20220273590A1, “COMPOUNDS FOR PREVENTION AND TREATMENT OF POST-OPERATIVE COGNITIVE DYSFUNCTION” (ABREXA PHARMACEUTICALS, INC., priority 2019, published 2022)
Values joined by “and” are separate entries in the source; they are usually repeats but may differ in a detail not shown here. Identical values can stand only once. Like-named read-outs stand apart in the source and are kept apart here.

Columns and labels:
[1] = Plasma levels of J147 after oral administration in Basis suspension; type: in vivo, Adult Wister Rats; conditions: oral 20 mg/kg in Basis suspension
Description: Plasma samples obtained during surgery in J147-treated rats and 3 control rats were measured for circulating levels of J147. Results of pharmacokinetic measures of both plasma and brain levels of J147 in rats following oral administration of J147 in basis suspension at 20 mg/kg and also following intravascular administration at 5 mg/kg are shown in Table 2A-C below. When taking the absence of an appropriate peak as zero, mean concentration is 0 ng/ml in controls, 3.103 ng/ml in acutely treated rats and 0.233 ng/ml in chronically treated rats. J147 levels in food were verified as well (467 mg/kg). […] During the first 10 days after surgery and individual housing, rats on the diet ate on average 20±1 g, which was similar to the 20±1 g in surgery with control food and 23±1 g in non-surgery controls, verifying the anticipated intake of 10 mg J147/rat/day and further supporting no preference or aversion for the diet food.
Tables 2A-2B. Pharmacokinetic Measures of Plasma and Brain Levels of J147 Formulated in Basis Suspension Administered Orally to Adult Wister Rats at 20mg/kg.

animal model of POCD = assay: Morris Water Maze (MWM) after abdominal surgery; type: in vivo, Wistar rats; conditions: chronically treated rats
Description: Male Wistar rats (˜350 g) were randomly divided into 4 experimental groups; non-surgery; control abdominal surgery; surgery+acute J147 treatment (7 mg/rat by gavage, 4-5 hours before surgery); surgery+chronic J147 (500 mg/kg food, 1 week before surgery until the end of the study). Timed blood samples were collected. Days 9-11 post surgery, general behavior (Open field: OF) and cognitive performance (Novel Object/Novel Location Recognition: NOR/NLR; Morris Water Maze: MWM) were tested. Day 14, rats were sacrificed and blood and brain tissue were collected for further analyses. (Neuro)inflammation was examined by circulating cytokine levels and microglia activation in the brain.
Abdominal surgery was performed as described previously by Hovens et al., 2014. Rats were anaesthetized using sevoflurane (±2.5% in air/O2=2/1) and received 0.01 mg/kg buprenorphine s.c. A heating blanket was used to preserve body temperature. An incision was made along the linea alba and the intestines were exteriorised. […]
The second day started with a probe trial to assess early spatial memory. […] We measured how often the rat crossed the place of the platform and how much time he spent in the target quadrant. […]

- concentration at 0.25 h ([1]; Wistar, rat, plasma, po, 20 mg/kg, 0.25 h, individual rats (Rat 10, 11, 12), read-out: Plasma Conc.): 1.29 ng/mL
- concentration at 0.25 h ([1]; Wistar, rat, plasma, po, 20 mg/kg, 0.25 h, mean of rats, read-out: Plasma Conc. Mean): 1.34 ng/mL
- concentration at 0.5 h ([1]; Wistar, rat, plasma, po, 20 mg/kg, 0.5 h, mean of rats, read-out: Plasma Conc. Mean): 3.94 ng/mL
- concentration at 1 h ([1]; Wistar, rat, plasma, po, 20 mg/kg, 1 h, individual rats (Rat 10, 11, 12), read-out: Plasma Conc.): 7.34 ng/mL
- concentration at 1 h ([1]; Wistar, rat, plasma, po, 20 mg/kg, 1 h, mean of rats, read-out: Plasma Conc. Mean): 8.19 ng/mL
- concentration at 2 h ([1]; Wistar, rat, plasma, po, 20 mg/kg, 2 h, individual rats (Rat 10, 11, 12), read-out: Plasma Conc.): 15.1 ng/mL
- concentration at 2 h ([1]; Wistar, rat, plasma, po, 20 mg/kg, 2 h, mean of rats, read-out: Plasma Conc. Mean): 15.8 ng/mL
- concentration at 4 h ([1]; Wistar, rat, plasma, po, 20 mg/kg, 4 h, mean of rats, read-out: Plasma Conc. Mean): 8.8 ng/mL
- concentration at 6 h ([1]; Wistar, rat, plasma, po, 20 mg/kg, 6 h, individual rats (Rat 10, 11, 12), read-out: Plasma Conc.): 3.14 ng/mL
- concentration at 6 h ([1]; Wistar, rat, plasma, po, 20 mg/kg, 6 h, mean of rats, read-out: Plasma Conc. Mean): 2.46 ng/mL
- concentration at 8 h ([1]; Wistar, rat, plasma, po, 20 mg/kg, 8 h, individual rats (Rat 10, 11, 12), read-out: Plasma Conc.): 0.822 ng/mL
- concentration at 8 h ([1]; Wistar, rat, plasma, po, 20 mg/kg, 8 h, mean of rats, read-out: Plasma Conc. Mean): 0.788 ng/mL
- Plasma Conc. ([1]; 0.25 h, individual rats (Rat 10, 11, 12), 20 mg/kg): BLOQ and 1.38 ng/mL
- Plasma Conc. ([1]; 0.5 h, individual rats (Rat 10, 11, 12), 20 mg/kg): 1.52 ng/mL and 5.77 ng/mL and 4.54 ng/mL
- Plasma Conc. ([1]; 1 h, individual rats (Rat 10, 11, 12), 20 mg/kg): 8.39 ng/mL and 8.83 ng/mL
- Plasma Conc. ([1]; 2 h, individual rats (Rat 10, 11, 12), 20 mg/kg): 16.9 ng/mL and 15.4 ng/mL
- Plasma Conc. ([1]; 4 h, individual rats (Rat 10, 11, 12), 20 mg/kg): 6.92 ng/mL and 6.35 ng/mL and 13.2 ng/mL
- Plasma Conc. ([1]; 6 h, individual rats (Rat 10, 11, 12), 20 mg/kg): 1.78 ng/mL and 2.47 ng/mL
- Plasma Conc. ([1]; 8 h, individual rats (Rat 10, 11, 12), 20 mg/kg): 0.654 ng/mL and 0.888 ng/mL
- Plasma Conc. ([1]; 12 h, individual rats (Rat 10, 11, 12)): BLOQ
- Plasma Conc. ([1]; 16 h, individual rats (Rat 10, 11, 12)): BLOQ
- Plasma Conc. ([1]; 20 h, individual rats (Rat 10, 11, 12)): BLOQ
- Plasma Conc. ([1]; 24 h, individual rats (Rat 10, 11, 12)): BLOQ
SMILES: COc1cccc(/C=N/N(C(=O)C(F)(F)F)c2ccc(C)cc2C)c1 [J147]
- spatial and reversal learning (MWM), effect of treatment (animal model of POCD): not affected
- spatial memory in the MWM (animal model of POCD): significantly improved spatial memory
